PMC7995547, “ω‐Imidazolyl‐alkyl derivatives as new preclinical drug candidates for treating non‐alcoholic steatohepatitis” (Physiological Reports, 2021)

System: HFD‐induced NASH rat model (liver)
Assay: Oxidative stress (ROS status) in the liver, HFD-induced NASH rat model
Format: in vivo, Wistar rats
Settings: for Dose dependence of the effect on SRA level: Pearson correlation / linear regression; for Increase in GR activity compared to disease group: I‐ol, I‐an groups overall; for Increase in GR activity compared to disease group / Decrease in SRA level compared to disease group / Decrease in TBARS level compared to disease group / Reduction of the effect of HFD on the SRA level / Reduction of the effect of HFD on the TBARS level: UDCA 40 mg/kg b.w.; for Decrease in SRA level compared to disease group: average over 0.4, 4, 40 mg/kg b.w. (I‐ol, I‐an), oral gavage daily, last 4 of 16 weeks HFD; for Decrease in TBARS level compared to disease group / Reduction of the effect of HFD on the SRA level / Reduction of the effect of HFD on the TBARS level: average over doses (I‐ol, I‐an)
Procedure: Studies were done using Wistar rats of female sex by the Institute of Pharmacology and Biochemistry at Minsk. The animals were 80–90 days old and weighed 180–200 g. They had free access to a liquid Lieber‐DeCarli (LDC) diet (Lieber et al., 2004) and were housed under standard conditions meaning a 12‐h light/dark cycle at 22 ± 2°C and 55 ± 5% humidity.
The rats were divided into 10 groups based on the diets and experimental substances administered (Figure 2).
Group 1 was designated as the first control group; it was fed a normal standard solid diet. Group 2, as the second control group, was fed a standard amount of fat as a part of the liquid “physiological,” non‐high fat LDC diet. All other groups received the liquid ‘disease‐causing’ LDC diet (Table 2), including a high content of unsaturated fatty acids.
Both LDC diets were in a liquid form as produced by ssniff‐Spezialdiäten GmbH, Soest (Germany). The feed was provided over the entire experimental period of 16 weeks; however, the corresponding experimental substances were only administered in the last four weeks (Figure 3).
The experimental substances I‐ol, I‐an, and UDCA were dissolved in a 0.8% aqueous HPMC gel to obtain the following concentrations: (1) I‐ol at 0.4, 4, and 40 mg/kg body weight (b.w.), (2) I‐an at 0.4, 4, and 40 mg/kg b.w., and (3) UDCA at 40 mg/kg b.w. The Group‐2 and −3 rats received only HPMC as placebo. Each test encompassed 6–8 rats that were put up in a separate cage. The rats were fed ad libitum, and their intake per cage was controlled daily. In order to ensure an exact daily reproducible dosage, the experimental substances or only HPMC was administered intragastrically via oral gavage. Basically, the drug therapy of a chronic disease is the more efficient the higher the adherence of the affected patients. This is generally higher with peroral administration than with any other form of application. At the end of the experiment, the animals were sacrificed under fasting conditions, by aorta dissection and exsanguination, after anesthetizing with an intraperitoneal injection of 5% pentobarbital solution.
The formation of ROS in the rat liver was measured using NADPH‐induced chemiluminescence as described by Müller‐Peddinghaus et al. (Muller‐Peddinghaus, 1987). Luminol and lucigenin were used for detecting the superoxide radical anion (SRA) and hydrogen peroxide. Liver pieces were homogenized in 0.1 M sodium phosphate buffer, pH 7.4; the homogenates were centrifuged at 9,000 × g at 0°C; and aliquots were used for subsequent measurements. Reduced glutathione (GSH) was estimated via a modified Ellman's method (Ellman, 1959), in which 0.2 mL of the liver homogenate supernatant was added to 1.6 mL of an EDTA/sodium phosphoric acid solution and the absorbance noted at 412 nm against blank values. GSH solution produced immediately before application served as the standard. The end products of the lipid peroxidation reaction were equivalent to the thiobarbituric acid‐reacting substances (TBARS), and their concentration was measured according to the method described by Buege et al. (Buege & Aust, 1978). Enzymatic activities of microsomal glutathione reductase (GR) and cytosolic glutathione peroxidase (GPx) were measured according to the methodology of Buko et al. (Buko et al., 2002). Catalase activity was determined according to the spectroscopic methodology described by Beers et al. (Beers & Sizer, 1952) using hydrogen peroxide as the substrate.

[1] = liver, highest concentration (40 mg/kg b.w.)

| SMILES | Dose dependence of the effect on hydrogen peroxide level (0.4, 4, 40 mg/kg b.w.) | Dose dependence of the effect on SRA level (0.4, 4, 40 mg/kg b.w.) | Increase in GR activity compared to disease group (liver) | Decrease in SRA level compared to disease group (liver) [%] | Decrease in TBARS level compared to disease group (liver) [%] | Reduction of the effect of HFD on the SRA level (liver) [%] | Reduction of the effect of HFD on the TBARS level (liver) [%] | Effect on GSH level (in words) (liver, compound overall) | Decrease in hydrogen peroxide level compared to disease group [1] [%] | Hydrogen peroxide level below the reference values of group 1 [1] [%] | SRA level below the reference value of control group 1 [1] [%] | Effect of HFD nullified, GR activity increased by (on an average) (liver, relative to the effect of HFD) [%] | Dose dependence of the effect on GSH level (0.4, 4, 40 mg/kg b.w.) | Increase in GSH level compared to disease group [1] [%] | Reduction of SRA level [1] [%] | Reduction of the effect of HFD on GSH level [1] [%] |
| --- | --- | --- | --- | --- | --- | --- | --- | --- | --- | --- | --- | --- | --- | --- | --- | --- |
| OCCCCCCCCCCCCn1ccnc1 [I‐ol, 12‐imidazolyl‐1‐dodecanol] | strong, very highly significant (p < 0.001), linear, dose‐dependent effect | strong, very highly significant (p < 0.001), linear, dose‐dependent effect | 28% | 21 | 38 | 60 | 87 | non‐significant trend toward an increasing GSH level | 50 | 16 | 24 | 113 |  |  |  |  |
| CCCCCCCCCCCCn1ccnc1 [I‐an, 1‐imidazolyldodecane] |  | weak, significant (p < 0.05), linear, dose‐dependent effect | no effect | 23 | 35 | 65 | 82 |  | 43 | 4 |  |  | weak, significant (p < 0.05), linear, dose‐dependent effect | 63 | 75 | 87 |
